Measurements: ChEMBL document CHEMBL1201862, “PubChem BioAssay data set” (2004)
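Interpolation was linear, between the two tested concentrations surrounding the appropriate level; five concentrations were tested over 48 hours in 96-well plates. Here, GI50 denotes the concentration required for 50% inhibition of growth.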 Activity calls are given as the source filed them. Rule as the data show it: active = GI50 up to about 1.1 µM and inactive = higher.

Legend:
Assay in all cases: growth of human tumour cells (NCI), 48 h
CCRF-CEM = tested on: CCRF-CEM
HT-29 = tested on: HT-29
OVCAR-8 = tested on: OVCAR-8
OVCAR-5 = tested on: OVCAR-5
LOX IMVI = tested on: LOX IMVI
HL-60 = tested on: HL-60
MDA-MB-231 = tested on: MDA-MB-231
RXF 393 = tested on: RXF 393
UACC-257 = tested on: UACC-257
K562 = tested on: K562
NCI-H226 = tested on: NCI-H226
NCI-H23 = tested on: NCI-H23
DU-145 = tested on: DU-145
MDA-MB-435 = tested on: MDA-MB-435
SNB-75 = tested on: SNB-75
SF-295 = tested on: SF-295
OVCAR-3 = tested on: OVCAR-3
SK-MEL-28 = tested on: SK-MEL-28
SF-539 = tested on: SF-539
A549 = tested on: A549

Measured: GI50

CCOc1cc(NC(C)=O)ccc1C(=O)NN1C(=O)C(Cl)C1c1ccccc1 (stereo not given)
inactive: CCRF-CEM 2.67 µM | HT-29 16.6 µM | OVCAR-8 20.9 µM | OVCAR-5 17.4 µM | LOX IMVI 1.37 µM | HL-60 14.1 µM | MDA-MB-231 13.2 µM | RXF 393 13.6 µM | UACC-257 11.9 µM | K562 5.32 µM | NCI-H226 12.7 µM | NCI-H23 14.3 µM | DU-145 17.6 µM | MDA-MB-435 11.5 µM | SNB-75 15.6 µM | SF-295 20.4 µM | OVCAR-3 14.7 µM | SK-MEL-28 16.9 µM | SF-539 10.9 µM | A549 16.5 µM

C=CCN(C(=O)CNC(=O)C(F)(F)F)c1cc(OCc2ccccc2)c2c(c1)c(C)cn2S(=O)(=O)c1ccccc1
active: CCRF-CEM 0.139 µM | HL-60 < 0.01 µM
inactive: HT-29 > 100 µM | OVCAR-8 > 26.8 µM | OVCAR-5 > 100 µM | LOX IMVI 16 µM | MDA-MB-231 > 24.1 µM | RXF 393 5.51 µM | UACC-257 > 27.5 µM | K562 > 23.9 µM | NCI-H226 > 34.8 µM | NCI-H23 > 87.7 µM | DU-145 > 100 µM | MDA-MB-435 40.6 µM | SNB-75 4.8 µM | SF-295 23 µM | OVCAR-3 > 49.5 µM | SK-MEL-28 > 100 µM | SF-539 > 100 µM | A549 7.5 µM

COC(=O)/C=C1\CCCN1CCc1cc2c(cc1CC#N)OCO2
inactive: CCRF-CEM 42.5 µM | HT-29 32.2 µM | OVCAR-8 > 100 µM | OVCAR-5 > 100 µM | LOX IMVI > 100 µM | HL-60 40.7 µM | MDA-MB-231 47.9 µM | RXF 393 31.7 µM | UACC-257 59.4 µM | K562 49.4 µM | NCI-H226 48.6 µM | NCI-H23 47.2 µM | DU-145 80.4 µM | MDA-MB-435 17.3 µM | SNB-75 25.1 µM | SF-295 38.5 µM | OVCAR-3 22.6 µM | SK-MEL-28 84.1 µM | SF-539 46.8 µM | A549 > 100 µM

COc1ccc(/C=C/C(=O)Oc2ccc(/C=C3\CCCCC3=O)cc2)cc1
inactive: CCRF-CEM 1.93 µM | HT-29 6.28 µM | OVCAR-8 > 75.9 µM | OVCAR-5 > 100 µM | LOX IMVI > 100 µM | HL-60 12.6 µM | MDA-MB-231 40.9 µM | RXF 393 > 100 µM | UACC-257 > 67.8 µM | K562 > 100 µM | NCI-H226 25.3 µM | NCI-H23 97.1 µM | DU-145 > 100 µM | MDA-MB-435 > 44.6 µM | SNB-75 > 88.3 µM | SF-295 18.4 µM | OVCAR-3 > 100 µM | SK-MEL-28 > 100 µM | SF-539 > 100 µM | A549 80.5 µM
